This is an account of results in patent publication US20260266848A1, “COMPOSITIONS AND METHODS FOR DIAGNOSING AND TREATING DYSTONIA” (Duke University, priority 2023, published 2026).

The test system of this assay is DYT1 MEF secreted EVs. The experiment in a line: Small RNAseq of miRNAs in EVs secreted by DYT1 vs WT MEFs, ritonavir 24 h. The assay is classed as cell-based, mouse. Conditions: 24 hour culture exposure. As to the method:
RNA was isolated from the DYT1 vs WT mouse embryonic fibroblast (MEF) secreted EVs, using the same cultures used in proteomic experiments. Small RNA sequencing was performed using a Illumina Novoseq 500. […] The number of independent culture preparations per genotype was three (N=3). The EV fraction was divided and separately analyzed for proteins and RNAs. […] Genotype-disrupted miRNAs and genotype-directionality as identified in FIG. 6A are indicated by blue and red dots in FIG. 6B. […] Blue and red data points of FIG. 6C identify genotype effect and directionality originally as in FIG. 6A.

With `CC(C)c1nc(CN(C)C(=O)N[C@H](C(=O)N[C@@H](Cc2ccccc2)C[C@H](O)[C@H](Cc2ccccc2)NC(=O)OCc2cncs2)C(C)C)cs1` [ritonavir], the “effect on genotype-disrupted subset of EV miRNAs” value is “strong correlation of corrective effects”. Moreover, under “listed as Ritonavir”, the “effect on genotype-disrupted subset of EV miRNAs” value is listed as “stronger correlation of corrective effects”.
